Source: the supplement of paper PMC11061612

Tests used:
Test in all cases: Bliss excess, mean over the matrix (fraction); higher = more synergy
[1] = tested on: VA-ES-BJ (Other Solid Carcinomas)
Procedure, shortened: (§1)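 Bliss excess equals the observed combination effect minus the expected value EA + EB − EA·EB, where EA and EB are the effects of each agent alone. Combination Emax is the second-highest inhibition within the matrix. Inhibition was scaled from CellTiter-Glo 2.0 luminescence, with 0 set by vehicle wells and 1 by blank wells, after 72 hours of two-drug dosing of cells plated in 1536-well plates.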

[2] = tested on: OE19 (Esophageal Adenocarcinoma)
Procedure, shortened: as §1

[3] = tested on: BT-549 (Breast Carcinoma)
Procedure, shortened: as §1

ACHN (Kidney Carcinoma) = tested on: ACHN (Kidney Carcinoma)
Procedure, shortened: as §1

[4] = tested on: PANC-04-03 (Pancreatic Carcinoma)
Procedure, shortened: as §1

[5] = tested on: TE-1 (Esophageal Squamous Cell Carcinoma)
Procedure, shortened: as §1

[6] = tested on: LU-65 (Non-Small Cell Lung Carcinoma)
Procedure, shortened: as §1

[7] = tested on: KARPAS-299 (T-Cell Non-Hodgkin's Lymphoma)
Procedure, shortened: as §1

[8] = tested on: OVCAR-4 (Ovarian Carcinoma)
Procedure, shortened: as §1

[9] = tested on: HSC-4 (Oral Cavity Carcinoma)
Procedure, shortened: as §1

[10] = tested on: C-4-I (Cervical Carcinoma)
Procedure, shortened: as §1

TK10 (Kidney Carcinoma) = tested on: TK10 (Kidney Carcinoma)
Procedure, shortened: as §1

[11] = tested on: MLMA (Other Blood Carcinomas)
Procedure, shortened: as §1

[12] = tested on: KYSE-450 (Esophageal Squamous Cell Carcinoma)
Procedure, shortened: as §1

[13] = tested on: SCC-15 (Oral Cavity Carcinoma)
Procedure, shortened: as §1

[14] = tested on: MIA-PaCa-2 (Pancreatic Carcinoma)
Procedure, shortened: as §1

[15] = tested on: KMOE-2 (Acute Myeloid Leukemia)
Procedure, shortened: as §1

[16] = tested on: EoL-1-cell (Acute Myeloid Leukemia)
Procedure, shortened: as §1

UACC-62 (Melanoma) = tested on: UACC-62 (Melanoma)
Procedure, shortened: as §1

PWR-1E (Non-Cancerous) = tested on: PWR-1E (Non-Cancerous)
Procedure, shortened: as §1

Structure (SMILES)	Bliss excess [1]	Bliss excess [2]	Bliss excess [3]	Bliss excess (ACHN (Kidney Carcinoma))	Bliss excess [4]	Bliss excess [5]	Bliss excess [6]	Bliss excess [7]	Bliss excess [8]	Bliss excess [9]	Bliss excess [10]	Bliss excess (TK10 (Kidney Carcinoma))	Bliss excess [11]	Bliss excess [12]	Bliss excess [13]	Bliss excess [14]	Bliss excess [15]	Bliss excess [16]	Bliss excess (UACC-62 (Melanoma))	Bliss excess (PWR-1E (Non-Cancerous))
CC1(C)CCC(CN2CCN(c3ccc(C(=O)NS(=O)(=O)c4ccc(NCC5CCOCC5)c([N+](=O)[O-])c4)c(Oc4cnc5[nH]ccc5c4)c3)CC2)=C(c2ccc(Cl)cc2)C1 [Venetoclax] + C=CCn1c(=O)c2cnc(Nc3ccc(N4CCN(C)CC4)cc3)nc2n1-c1cccc(C(C)(C)O)n1 [AZD1775] (first compound max 1 µM, partner max 1 µM)	-0.0373	-0.0932	-0.0152	0.0604	-0.0597	-0.0667	0.041	0.008	0.0002	-0.0205	-0.0535	-0.0444	0.0421	-0.0642	-0.0159	0.0944	-0.0226	0.0156	0.0405	-0.0347
CCc1c2c(nc3ccc(O)cc13)-c1cc3c(c(=O)n1C2)COC(=O)[C@]3(O)CC [SN-38] + CN(C)CCCOc1ccc(-c2ccc3ncc4c(c3c2)n(C2CCOCC2)c(=O)n4C)cn1 [AZD0156] (first compound max 0.3 µM, 7x7, partner max 1 µM)	-0.0165	0.159	-0.0888	-0.0134	-0.0226	0.0182	-0.0148	0.071	-0.0149	-0.0346	0.115	0.028	-0.0501	0.0937	0.0092	0.0279	-0.0089	0.098	0.0077	0.0948
COc1nnc2ccc(N3CCC(c4ccc(OCCN5CCN(C)C(=O)[C@H]5C)cc4)CC3)nn12 [AZD5153] + C=CCn1c(=O)c2cnc(Nc3ccc(N4CCN(C)CC4)cc3)nc2n1-c1cccc(C(C)(C)O)n1 [AZD1775] (first compound max 1 µM, partner max 1 µM)	0.0076	-0.0441	-0.0585	-0.0396	-0.106	-0.0357	-0.0806	-0.0336	-0.0935	-0.0852	-0.109	-0.0831	-0.107	-0.0699	-0.0427	-0.0019	0.0656	-0.011	-0.0529	-0.127
CN(C)CCCOc1ccc(-c2ccc3ncc4c(c3c2)n(C2CCOCC2)c(=O)n4C)cn1 [AZD0156] + O=C(c1cc(Cc2n[nH]c(=O)c3ccccc23)ccc1F)N1CCN(C(=O)C2CC2)CC1 [Olaparib] (first compound max 3 µM, partner max 3 µM)	-0.0267	0.13	-0.0436	0.0728	0.0481	-0.0185	0.0033	0	-0.0137	0.0226	0.0867	-0.0279	0.0255	-0.0054	0.067	-0.038	0.0564	0.237	-0.028	0.286
CC1(C)CCC(CN2CCN(c3ccc(C(=O)NS(=O)(=O)c4ccc(NCC5CCOCC5)c([N+](=O)[O-])c4)c(Oc4cnc5[nH]ccc5c4)c3)CC2)=C(c2ccc(Cl)cc2)C1 [Venetoclax] + COc1cc(Nc2ncc3c(n2)-c2ccc(Cl)cc2C(c2c(F)cccc2OC)=NC3)ccc1C(=O)O [Alisertib] (first compound max 1 µM, 7x7, partner max 10 µM)	-0.0089	-0.059	0.0371	0.0062	-0.0843	0.0279	-0.0164	0.134	-0.0215	-0.0528	-0.0158	-0.0694	-0.046	0.007	-0.0257	-0.0131	0.0304	0.0132	0.01	-0.0103
NC1(C(=O)N[C@@H](CCO)c2ccc(Cl)cc2)CCN(c2ncnc3[nH]ccc23)CC1 [Capivasertib] + COc1nnc2ccc(N3CCC(c4ccc(OCCN5CCN(C)C(=O)[C@H]5C)cc4)CC3)nn12 [AZD5153] (first compound max 10 µM, 7x7, partner max 1 µM)	0.0414	0.0561	0.0602	-0.0094	-0.0242	-0.0169	-0.152	-0.0453	-0.0387	0.0211	0.046	-0.0154	-0.0177	-0.0508	0.028	-0.0594	-0.0211	-0.0442	-0.0551	0.0579
CC(=O)Nc1cccc(-n2c(=O)n(C3CC3)c(=O)c3c(Nc4ccc(I)cc4F)n(C)c(=O)c(C)c32)c1 [Trametinib] + Cc1nc(-c2cn3c(n2)-c2ccc(-c4cnn(C(C)(C)C(N)=O)c4)cc2OCC3)n(C(C)C)n1 [Taselisib] (first compound max 1 µM, 7x7, partner max 10 µM)	-0.0328	0.158	0.0203	0.132	0.101	0.127	0.0994	0.25	0.104	0.105	0.229	0.0739	-0.036	0.11	0.171	0.148	0.066	0.232	-0.0422	0.121
